According to patent US10131652B2, “Pyrimidinyloxy benzene derivatives as herbicides” (E. I. DU PONT DE NEMOURS AND COMPANY, priority 2014, dated 2018):

Columns and labels:
Type in all cases: in vivo
[1] = system: wheat (Triticum aestivum); assay: Test B pre-/postemergence plant response
Description: (§1) Seeds of plant species selected from bamyardgrass (Echinochloa crus-galli), kochia (Kochia scoparia), ragweed (common ragweed, Ambrosia elatior), Italian ryegrass (Lolium multiflorum), large (Lg) crabgrass (Digitaria sanguinalis), giant foxtail (Setaria faberii), momingglory (Ipomoea spp.), pigweed (Amaranthus retroflexus), velvetleaf (Abutilon theophrasti), wheat (Triticum aestivum), and corn (Zea mays) were planted into a blend of loam soil and sand and treated preemergence with a directed soil spray using test chemicals formulated in a non-phytotoxic solvent mixture which included a surfactant. At the same time, plants selected from these crop and weed species and also blackgrass (Alopecurus myosuroides), and galium (catchweed bedstraw, Galium aparine) were planted in pots containing the same blend of loam soil and sand and treated with postemergence applications of test chemicals formulated in the same manner. Plants ranged in height from 2 to 10 cm and were in the one- to two-leaf stage for the postemergence treatment. Treated plants and untreated controls were maintained in a greenhouse for approximately 10 days, after which time all treated plants were compared to untreated controls and visually evaluated for injury. Plant response ratings, summarized in Table B, are based on a 0 to 100 scale where 0 is no effect and 100 is complete control. A dash (-) response means no test result.

[2] = system: ragweed (common ragweed, Ambrosia elatior); assay: Test B pre-/postemergence plant response
Description: as §1

kochia (Kochia scoparia) = assay: Test B pre-/postemergence plant response
Description: as §1

[3] = system: Italian ryegrass (Lolium multiflorum); assay: Test B pre-/postemergence plant response
Description: as §1

[4] = system: barnyardgrass (Echinochloa crus-galli); assay: Test B pre-/postemergence plant response
Description: as §1

corn (Zea mays) = assay: Test B pre-/postemergence plant response
Description: as §1

[5] = system: pigweed (Amaranthus retroflexus); assay: Test B pre-/postemergence plant response
Description: as §1

[6] = system: giant foxtail (Setaria faberii); assay: Test B pre-/postemergence plant response
Description: as §1

rice (Oryza sativa) = assay: Test C flooded paddy test plant response; conditions: Flood, 250 g ai/ha; scale of 0 to 100 where 0 is no effect and 100 is complete control; 13 to 15 days
Method: (§2) Plant species in the flooded paddy test selected from rice (Oryza sativa), small-flower umbrella sedge (Cyperus difformis), ducksalad (Heteranthera limosa), and bamyardgrass (Echinochloa crus-galli) were grown to the 2-leaf stage for testing. At time of treatment, test pots were flooded to 3 cm above the soil surface, treated by application of test compounds directly to the paddy water, and then maintained at that water depth for the duration of the test. Treated plants and controls were maintained in a greenhouse for 13 to 15 days, after which time all species were compared to controls and visually evaluated. Plant response ratings, summarized in Table C, are based on a scale of 0 to 100 where 0 is no effect and 100 is complete control. A dash (-) response means no test result.

[7] = system: barnyardgrass (Echinochloa crus-galli); assay: Test C flooded paddy test plant response; conditions: Flood, 250 g ai/ha; scale of 0 to 100 where 0 is no effect and 100 is complete control; 13 to 15 days
Method: as §2

[8] = system: small-flower umbrella sedge (Cyperus difformis); assay: Test C flooded paddy test plant response; conditions: Flood, 250 g ai/ha; scale of 0 to 100 where 0 is no effect and 100 is complete control; 13 to 15 days
Method: as §2

[9] = system: ducksalad (Heteranthera limosa); assay: Test C flooded paddy test plant response; conditions: Flood, 250 g ai/ha; scale of 0 to 100 where 0 is no effect and 100 is complete control; 13 to 15 days
Method: as §2

[10] = system: blackgrass (Alopecurus myosuroides); assay: Test B postemergence plant response
Description: (§3) At the same time, plants selected from these crop and weed species and also blackgrass (Alopecurus myosuroides), and galium (catchweed bedstraw, Galium aparine) were planted in pots containing the same blend of loam soil and sand and treated with postemergence applications of test chemicals formulated in the same manner. Plants ranged in height from 2 to 10 cm and were in the one- to two-leaf stage for the postemergence treatment. Treated plants and untreated controls were maintained in a greenhouse for approximately 10 days, after which time all treated plants were compared to untreated controls and visually evaluated for injury. Plant response ratings, summarized in Table B, are based on a 0 to 100 scale where 0 is no effect and 100 is complete control. A dash (-) response means no test result.

[11] = system: galium (catchweed bedstraw, Galium aparine); assay: Test B postemergence plant response
Description: as §3

[12] = 125 g ai/ha, postemergence, 0 to 100 scale, 0 no effect, 100 complete control
[13] = Postemergence, 500 g ai/ha, 0 to 100 scale (0 no effect, 100 complete control)
[14] = Preemergence, 125 g ai/ha, 0 to 100 scale where 0 is no effect and 100 is complete control
[15] = Preemergence, 500 g ai/ha, 0 to 100 scale where 0 is no effect and 100 is complete control
[16] = 31 g ai/ha, Postemergence, 0 to 100 scale, 0 no effect, 100 complete control
[17] = Preemergence, 31 g ai/ha, 0 to 100 scale (0 no effect, 100 complete control)

SMILES	Plant response rating, Wheat [1, 12]	Plant response rating, Ragweed [2, 12]	Plant response rating, Ragweed [2, 14]	Plant response rating, Kochia (kochia (Kochia scoparia); [12])	Plant response rating, Kochia (kochia (Kochia scoparia); [14])	Plant response rating, Ryegrass, Italian [3, 12]	Plant response rating, Ryegrass, Italian [3, 14]	Plant response rating, Barnyardgrass [4, 12]	Plant response rating, Barnyardgrass [4, 14]	Plant response rating, Corn (corn (Zea mays); [12])	Plant response rating, Pigweed [5, 12]	Plant response rating, Pigweed [5, 14]	Plant response rating, Foxtail, Giant [6, 12]	Plant response rating, Foxtail, Giant [6, 14]	Rice plant response rating (rice (Oryza sativa))	Barnyardgrass plant response rating [7]	Sedge, Umbrella plant response rating [8]	Ducksalad plant response rating [9]	Plant response rating, Blackgrass [10, 12]	Plant response rating, Galium [11, 12]	further results
Cn1nncc1-c1ccccc1Oc1ncc(Cl)cn1 [Compound 52]	0	20	0	20	0	0	0	0	0	0	30	40	0	0	0	0	0	0	0	40	Plant response rating, Wheat [1, 13]: 20; Plant response rating, Ragweed [2, 13]: 20; Plant response rating, Ragweed [2, 15]: 0; Plant response rating, Kochia (kochia (Kochia scoparia); [13]): 50; Plant response rating, Kochia (kochia (Kochia scoparia); [15]): 30; Plant response rating, Ryegrass, Italian [3, 13]: 0; Plant response rating, Ryegrass, Italian [3, 15]: 0; Plant response rating, Barnyardgrass [4, 13]: 10; Plant response rating, Barnyardgrass [4, 15]: 0; Plant response rating, Corn (corn (Zea mays); [13]): 10; Plant response rating, Pigweed [5, 13]: 60; Plant response rating, Pigweed [5, 15]: 50; Plant response rating, Foxtail, Giant [6, 13]: 0; Plant response rating, Foxtail, Giant [6, 15]: 0; Plant response rating, Blackgrass [10, 13]: 10; Plant response rating, Galium [11, 13]: 50
CC(C)(C)c1cc(-c2ccccc2Oc2ncc(Cl)cn2)no1 [Compound 59]	0	0	0	0	0	0	0	10	0	0	40	0	10	10	0	0	0	0	0	40	Plant response rating, Wheat [1, 13]: 10; Plant response rating, Ragweed [2, 13]: 0; Plant response rating, Ragweed [2, 15]: 0; Plant response rating, Kochia (kochia (Kochia scoparia); [13]): 20; Plant response rating, Kochia (kochia (Kochia scoparia); [15]): 0; Plant response rating, Ryegrass, Italian [3, 13]: 0; Plant response rating, Ryegrass, Italian [3, 15]: 0; Plant response rating, Barnyardgrass [4, 13]: 10; Plant response rating, Barnyardgrass [4, 15]: 10; Plant response rating, Corn (corn (Zea mays); [13]): 10; Plant response rating, Pigweed [5, 13]: 50; Plant response rating, Pigweed [5, 15]: 30; Plant response rating, Foxtail, Giant [6, 13]: 50; Plant response rating, Foxtail, Giant [6, 15]: 60; Plant response rating, Blackgrass [10, 13]: 40; Plant response rating, Galium [11, 13]: 90
Cc1nc(-c2ccccc2Oc2ncc(Cl)cn2)co1 [Compound 70]	0	0	0	0	0	0	0	0	0	0	20	0	0	0	0	0	0	0	0	0	Plant response rating, Wheat [1, 16]: 0; Plant response rating, Ragweed [2, 16]: 0; Ragweed plant response rating [2, 17]: 0; Plant response rating, Kochia (kochia (Kochia scoparia); [16]): 0; Kochia plant response rating (kochia (Kochia scoparia); [17]): 0; Plant response rating, Ryegrass, Italian [3, 16]: 0; Ryegrass, Italian plant response rating [3, 17]: 0; Plant response rating, Barnyardgrass [4, 16]: 0; Barnyardgrass plant response rating [4, 17]: 0; Plant response rating, Corn (corn (Zea mays); [16]): 0; Plant response rating, Pigweed [5, 16]: 10; Pigweed plant response rating [5, 17]: 0; Plant response rating, Foxtail, Giant [6, 16]: 0; Foxtail, Giant plant response rating [6, 17]: 0; Plant response rating, Blackgrass [10, 16]: 0; Plant response rating, Galium [11, 16]: 0
CC(C)n1cnc(-c2ccccc2Oc2ncc(Cl)cn2)n1 [Compound 73]	0	0	0	0	0	0	0	0	0	0	10	0	0	0	0	0	0	0	0	10	Plant response rating, Wheat [1, 16]: 0; Plant response rating, Ragweed [2, 16]: 0; Ragweed plant response rating [2, 17]: 0; Plant response rating, Kochia (kochia (Kochia scoparia); [16]): 0; Kochia plant response rating (kochia (Kochia scoparia); [17]): 0; Plant response rating, Ryegrass, Italian [3, 16]: 0; Ryegrass, Italian plant response rating [3, 17]: 0; Plant response rating, Barnyardgrass [4, 16]: 0; Barnyardgrass plant response rating [4, 17]: 0; Plant response rating, Corn (corn (Zea mays); [16]): 0; Plant response rating, Pigweed [5, 16]: 0; Pigweed plant response rating [5, 17]: 0; Plant response rating, Foxtail, Giant [6, 16]: 0; Foxtail, Giant plant response rating [6, 17]: 0; Plant response rating, Blackgrass [10, 16]: 0; Plant response rating, Galium [11, 16]: 0
CCn1nc(C(F)(F)F)cc1-c1c(C#N)cccc1Oc1ncc(Cl)cn1 [Compound 89]	0	10	0	70	0	0	0	30	70	30	90	100	40	90	0	0	80	30	20	50	Plant response rating, Wheat [1, 16]: 0; Plant response rating, Ragweed [2, 16]: 10; Ragweed plant response rating [2, 17]: 0; Plant response rating, Kochia (kochia (Kochia scoparia); [16]): 50; Kochia plant response rating (kochia (Kochia scoparia); [17]): 0; Plant response rating, Ryegrass, Italian [3, 16]: 0; Ryegrass, Italian plant response rating [3, 17]: 0; Plant response rating, Barnyardgrass [4, 16]: 10; Barnyardgrass plant response rating [4, 17]: 10; Plant response rating, Corn (corn (Zea mays); [16]): 10; Plant response rating, Pigweed [5, 16]: 60; Pigweed plant response rating [5, 17]: 100; Plant response rating, Foxtail, Giant [6, 16]: 10; Foxtail, Giant plant response rating [6, 17]: 40; Plant response rating, Blackgrass [10, 16]: 10; Plant response rating, Galium [11, 16]: 10
